Results reported in publication PMC12635268, “Novel antimicrobial peptides and peptide-microbiome crosstalk in Appalachian salamander skin” (NPJ Biofilms and Microbiomes, 2025).
Converted amounts (≈) assume the structure as drawn. Like-named read-outs stand apart in the source and are kept apart here.

Tests used:
[1] = tested on: K. pneumoniae 4640; assay: microbe, parasite or virus in culture
[2] = tested on: A. baumannii 5075; assay: microbe, parasite or virus in culture
[3] = design: method as in Biomatik (vendor); conditions: 1.0 mg peptide in 1.0 ml solvent; peptides synthesized by Biomatik; ref Biomatik (vendor); cited from earlier work

SMILES	MIC ([1]; Klebsiella pneumoniae, 4640, 20 h, K. pneumoniae 4640, CAMHB, 1 × 10⁵ CFU/mL, 0.25 to 128 μg/mL, 37 °C 20 h, duplicate, read visually (CLSI))	MIC ([1]; Klebsiella pneumoniae, 4640, read-out: Bacterial MIC, K. pneumoniae 4640, Historical run 15NOV23)	MIC ([1]; Klebsiella pneumoniae, 4640, read-out: Bacterial MIC, K. pneumoniae 4640, Historical run 19APRIL23)	MIC ([1]; Klebsiella pneumoniae, 4640, read-out: Bacterial MIC, K. pneumoniae 4640, Historical run 22NOV23)	MIC ([1]; Klebsiella pneumoniae, 4640, read-out: Bacterial MIC, K. pneumoniae 4640, Week 1 (12/6/2023))	MIC ([1]; Klebsiella pneumoniae, 4640, read-out: Bacterial MIC, K. pneumoniae 4640, Week 2 (12/14/2023))	MIC ([2]; Acinetobacter baumannii, 5075, 20 h, A. baumannii 5075, CAMHB, 1 × 10⁵ CFU/mL, 0.25 to 128 μg/mL, 37 °C 20 h, duplicate, read visually (CLSI))	MIC ([2]; Acinetobacter baumannii, 5075, read-out: Bacterial MIC, A. baumannii 5075, Historical run 15NOV23)	MIC ([2]; Acinetobacter baumannii, 5075, read-out: Bacterial MIC, A. baumannii 5075, Historical run 19APRIL23)	MIC ([2]; Acinetobacter baumannii, 5075, read-out: Bacterial MIC, A. baumannii 5075, Historical run 22NOV23)	MIC ([2]; Acinetobacter baumannii, 5075, read-out: Bacterial MIC, A. baumannii 5075, Week 1 (12/6/2023))	MIC ([2]; Acinetobacter baumannii, 5075, read-out: Bacterial MIC, A. baumannii 5075, Week 2 (12/14/2023))	Suggest solvent (solubility) [3]
C[C@H]1COc2c(N3CCN(C)CC3)c(F)cc3c(=O)c(C(=O)O)cn1c23 [Levofloxacin, reference compound]	32 µg/mL (≈ 88.6 µM)	32 to 64 µg/mL (≈ 88.6 to 177 µM)	64 µg/mL (≈ 177 µM)	32 µg/mL (≈ 88.6 µM)	32 µg/mL (≈ 88.6 µM)	32 µg/mL (≈ 88.6 µM)	4 µg/mL (≈ 11.1 µM)	8 µg/mL (≈ 22.1 µM)	4 µg/mL (≈ 11.1 µM)	4 µg/mL (≈ 11.1 µM)	4 µg/mL (≈ 11.1 µM)	4 µg/mL (≈ 11.1 µM)	
CC[C@H](C)[C@H](NC(=O)[C@H](CCCCN)NC(=O)[C@H](CCC(=O)O)NC(=O)[C@H](CCCCN)NC(=O)[C@H](CO)NC(=O)[C@H](CCCCN)NC(=O)[C@H](CCCNC(=N)N)NC(=O)[C@H](Cc1ccccc1)NC(=O)[C@H](Cc1ccccc1)NC(=O)[C@H](CC(=O)O)NC(=O)CNC(=O)[C@H](CC(C)C)NC(=O)[C@@H](N)CC(C)C)C(=O)NCC(=O)N[C@@H](CCCCN)C(=O)N[C@@H](CCC(=O)O)C(=O)N[C@@H](Cc1ccccc1)C(=O)N[C@@H](CCCCN)C(=O)N[C@@H](CCCNC(=N)N)C(=O)N[C@H](C(=O)N[C@H](C(=O)N[C@@H](CCC(N)=O)C(=O)N[C@@H](CCCNC(=N)N)C(=O)N[C@H](C(=O)N[C@@H](CCCCN)C(=O)N[C@@H](CC(=O)O)C(=O)N[C@@H](Cc1ccccc1)C(=O)N[C@@H](CC(C)C)C(=O)N[C@@H](CCCNC(=N)N)C(=O)N[C@@H](CC(N)=O)C(=O)N[C@@H](CC(C)C)C(=O)N[C@H](C(=O)N1CCC[C@H]1C(=O)N[C@@H](CCCNC(=N)N)C(=O)N[C@H](C(=O)N[C@@H](CCC(=O)O)C(=O)N[C@@H](CO)C(=O)O)[C@@H](C)O)C(C)C)[C@@H](C)CC)C(C)C)[C@@H](C)CC [LL-37, reference compound]													1.0mg peptide soluble in 1.0ml (H2O:Acetonitrile=3:1)
